{"source": "ChEMBL document CHEMBL3045439", "about": "“Isoforms of the heteropteran Nezara viridula ecdysone receptor: protein characterisation, RH5992 insecticide binding and homology modelling” (Pest Manag Sci, 2011)", "type_in_all_cases": "protein-complex assay", "key": {"Ecdysone receptor [1]": {"target": "T1, Ecdysone receptor (Locusta migratoria, UniProt O97095+Q6V7U7)", "T1 sequence (O97095 whole entry)": "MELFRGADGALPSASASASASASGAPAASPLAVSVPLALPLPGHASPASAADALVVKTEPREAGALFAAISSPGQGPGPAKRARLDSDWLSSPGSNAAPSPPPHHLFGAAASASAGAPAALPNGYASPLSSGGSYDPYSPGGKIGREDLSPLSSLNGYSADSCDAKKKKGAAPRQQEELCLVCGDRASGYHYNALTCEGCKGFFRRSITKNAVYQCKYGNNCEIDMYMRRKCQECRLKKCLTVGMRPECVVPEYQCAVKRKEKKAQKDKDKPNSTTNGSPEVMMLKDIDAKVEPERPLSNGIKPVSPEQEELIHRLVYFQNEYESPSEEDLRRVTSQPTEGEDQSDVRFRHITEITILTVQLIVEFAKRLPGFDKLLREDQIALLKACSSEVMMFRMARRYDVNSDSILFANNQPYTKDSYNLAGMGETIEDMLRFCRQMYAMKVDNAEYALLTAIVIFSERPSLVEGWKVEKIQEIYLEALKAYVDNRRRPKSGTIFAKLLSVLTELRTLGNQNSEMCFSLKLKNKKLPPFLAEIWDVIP", "T1 sequence (Q6V7U7 whole entry)": "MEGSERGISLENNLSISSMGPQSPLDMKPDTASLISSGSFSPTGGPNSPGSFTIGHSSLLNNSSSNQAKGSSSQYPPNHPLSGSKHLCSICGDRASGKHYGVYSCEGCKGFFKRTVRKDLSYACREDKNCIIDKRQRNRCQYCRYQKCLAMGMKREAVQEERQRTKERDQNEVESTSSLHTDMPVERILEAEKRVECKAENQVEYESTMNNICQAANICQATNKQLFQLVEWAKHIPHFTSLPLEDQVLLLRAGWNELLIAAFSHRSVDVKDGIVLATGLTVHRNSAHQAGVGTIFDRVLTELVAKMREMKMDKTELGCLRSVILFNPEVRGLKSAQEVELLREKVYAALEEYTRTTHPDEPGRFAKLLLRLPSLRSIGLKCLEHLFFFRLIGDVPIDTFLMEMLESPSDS", "test": "Binding affinity to Locusta migratoria ecdysone receptor (EcR)"}, "Ecdysone receptor [2]": {"target": "T2, Ecdysone receptor (Plodia interpunctella, UniProt Q6IVK1+Q6RVD3)", "T2 sequence (Q6RVD3 whole entry)": "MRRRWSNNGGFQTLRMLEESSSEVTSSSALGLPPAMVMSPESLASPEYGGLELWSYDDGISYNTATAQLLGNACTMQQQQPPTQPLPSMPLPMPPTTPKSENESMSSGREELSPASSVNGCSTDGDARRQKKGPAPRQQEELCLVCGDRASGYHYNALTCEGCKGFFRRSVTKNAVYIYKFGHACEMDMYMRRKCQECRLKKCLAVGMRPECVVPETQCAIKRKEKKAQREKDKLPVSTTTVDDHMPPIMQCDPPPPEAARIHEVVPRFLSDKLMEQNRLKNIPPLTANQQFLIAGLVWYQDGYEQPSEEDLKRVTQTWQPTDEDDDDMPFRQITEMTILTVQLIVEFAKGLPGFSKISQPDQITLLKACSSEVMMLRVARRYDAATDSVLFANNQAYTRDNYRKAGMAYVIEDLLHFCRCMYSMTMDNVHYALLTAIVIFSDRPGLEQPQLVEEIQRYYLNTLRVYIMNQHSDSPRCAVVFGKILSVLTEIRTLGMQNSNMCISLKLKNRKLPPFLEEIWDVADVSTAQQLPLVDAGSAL", "T2 sequence (Q6IVK1 whole entry)": "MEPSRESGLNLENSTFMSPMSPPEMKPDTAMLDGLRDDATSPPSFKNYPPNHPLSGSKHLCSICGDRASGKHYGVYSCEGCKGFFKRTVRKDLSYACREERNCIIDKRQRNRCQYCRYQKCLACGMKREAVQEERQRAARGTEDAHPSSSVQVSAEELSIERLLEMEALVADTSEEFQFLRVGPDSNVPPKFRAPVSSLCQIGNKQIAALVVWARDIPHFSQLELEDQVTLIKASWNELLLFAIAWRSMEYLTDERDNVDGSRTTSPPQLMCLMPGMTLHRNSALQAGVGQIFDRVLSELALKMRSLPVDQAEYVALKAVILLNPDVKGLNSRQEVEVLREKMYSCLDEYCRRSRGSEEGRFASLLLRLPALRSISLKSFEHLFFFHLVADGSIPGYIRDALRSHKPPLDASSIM", "test": "Binding affinity to Plodia interpunctella (Indian meal moth ) EcR"}, "Ecdysone receptor [3]": {"target": "T3, Ecdysone receptor (Chilo suppressalis, UniProt Q8I1M8+Q8MYA6)", "T3 sequence (Q8MYA6 whole entry)": "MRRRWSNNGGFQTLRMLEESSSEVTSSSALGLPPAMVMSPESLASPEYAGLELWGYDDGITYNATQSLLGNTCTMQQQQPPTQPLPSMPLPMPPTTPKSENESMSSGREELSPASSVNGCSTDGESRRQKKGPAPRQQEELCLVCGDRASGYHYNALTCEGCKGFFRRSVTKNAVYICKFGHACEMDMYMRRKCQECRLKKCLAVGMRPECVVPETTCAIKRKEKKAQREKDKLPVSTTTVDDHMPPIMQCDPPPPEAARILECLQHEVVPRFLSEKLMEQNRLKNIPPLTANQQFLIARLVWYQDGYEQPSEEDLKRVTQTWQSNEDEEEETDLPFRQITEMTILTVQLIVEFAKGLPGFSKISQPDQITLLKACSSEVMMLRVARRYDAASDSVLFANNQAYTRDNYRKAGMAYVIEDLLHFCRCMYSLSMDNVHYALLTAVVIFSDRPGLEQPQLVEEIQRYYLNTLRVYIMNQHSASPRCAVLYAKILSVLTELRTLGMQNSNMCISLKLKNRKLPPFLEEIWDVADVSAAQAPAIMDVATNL", "T3 sequence (Q8I1M8 whole entry)": "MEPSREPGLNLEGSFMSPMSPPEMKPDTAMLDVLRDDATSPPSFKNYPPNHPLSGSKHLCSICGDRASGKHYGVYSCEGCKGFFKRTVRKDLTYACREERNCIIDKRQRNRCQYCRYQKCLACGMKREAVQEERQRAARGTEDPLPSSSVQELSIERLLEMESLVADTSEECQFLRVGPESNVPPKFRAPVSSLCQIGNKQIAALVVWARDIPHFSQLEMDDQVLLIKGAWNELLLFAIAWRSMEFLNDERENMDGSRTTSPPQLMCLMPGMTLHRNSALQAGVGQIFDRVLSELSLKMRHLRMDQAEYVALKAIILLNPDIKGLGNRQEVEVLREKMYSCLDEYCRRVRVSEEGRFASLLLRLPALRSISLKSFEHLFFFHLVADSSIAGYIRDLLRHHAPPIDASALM", "test": "Binding affinity to Chilo suppressalis (rice stem borer) EcR"}}}
{"smiles": "CCc1ccc(C(=O)NN(C(=O)c2cc(C)cc(C)c2)C(C)(C)C)cc1", "note": "[TEBUFENOZIDE]", "values": [{"measurement": "Ki", "setting": "Ecdysone receptor [1]", "value": 100000, "unit": "nM"}, {"measurement": "Ki", "setting": "Ecdysone receptor [2]", "value": 3.16, "unit": "nM"}, {"measurement": "Ki", "setting": "Ecdysone receptor [3]", "value": 1.26, "unit": "nM"}]}
